These results are taken from PMC6888615, “A Miniaturized Pump Out Method for Characterizing Molecule Interaction with ABC Transporters” (International Journal of Molecular Sciences, 2019).

Like-named read-outs stand apart in the source and are kept apart here.

Data set [1] has as its system MRPs. The data set can be described thus: Caco-2 pump out assay, CMFDA excretion. It counts as cell-based. The conditions noted are these: for effect on rate out of CMFDA: 50 µM (cyclosporin A 10 µM; doxorubicin 20 µM); for reduction of kout of CMFDA: 50 µM (elacridar 10 µM), p < 0.001.
For data set [2], the system named is MRPs. The arrangement: method as in PMID 21415249. To be noted: read-out: MRPs IC50 published value; cited from earlier work.
Data set [3] relates to P-gp. To be noted: cited from earlier work.
Data set [4] deals with BCRP. The conditions noted are these: cited from earlier work.
In data set [5] the test system is MRPs. To be noted: cited from earlier work.
Data set [6] deals with P-gp/BCRP. Briefly: Caco-2 pump out assay, rhodamine 123 excretion.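 For all read-outs here: Caco-2 cells loaded 120 min with 10 µM rhodamine 123, then dye efflux read by fluorescence at 37 °C every 2 min for 1 h, Kout as slope, compared against compound-free.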 The conditions noted are these: for Ratio Kout 96/384 wells, P-gp/BCRP: Kout R123 96-well / 384-well; for decrease of Kout of R123: 50 µM (cyclosporin A, elacridar, TPGS 10 µM; doxorubicin 20 µM).
A short description of data set [7]: Bidirectional transport (Papp) across Caco-2 monolayers on 24-well inserts, 21 days. The conditions noted are these: human, Caco-2, pH 7.4. In general terms: Caco-2 monolayers are a common model of the intestinal barrier.
The test system of data set [8] is P-gp/BCRP.
In data set [9] the test system is efflux pump activity in Caco-2 cells. The data set can be described thus: b→a permeability of doxorubicin across Caco-2 with efflux pump inhibitors. The data set is classed as in vitro ADME. The conditions noted are these: doxorubicin 20 µM; cyclosporin A 10 µM, elacridar 0.5 µM.
Data set [10] deals with P-gp. To be noted: read-out: P-gp IC50 based on the digoxin ER; cited from earlier work.
Data set [11] has as its system Caco-2 cells.

As usually defined, the IC50 is the concentration needed to halve the response being measured. In the case of `CN(C)C(=O)CCSC(SCCC(=O)O)c1cccc(C=Cc2ccc3ccc(Cl)cc3n2)c1` (centres unmarked) [MK571, 3-[[3-[2-(7-chloroquinolin-2-yl)vinyl]phenyl]-(2-dimethylcarbamoylethylsulfanyl)methylsulfanyl] propionic acid], the “effect on rate out of CMFDA” value in data set [1] is recorded as “decreased strongly”. Moreover, the “Transporter interaction, MRPs” value in data set [1] (96 wells) and in data set [1] (384 wells) was “+ (Interaction with efflux pumps when Kout ≤ 80% of control)” in each case. Further, the IC50 is 3.8 µM in data set [1] (read-out: IC50 towards MRPs activity (CMFDA excretion), non-linear regression of pump out assay data); 2430 nM in [2]; 26 µM in [3]; 50 µM in data set [4]; 10 µM in data set [5]. Moreover, in [6], the “kout Rho 123, mean” value is 70.9 ± 10.6 pmol.min^−1.mg^−1 Protein. Also, the “Transporter interaction, P-gp/BCRP” value in [6] (96 wells) and in data set [6] (384 wells) was “+ (Interaction with efflux pumps when Kout ≤ 80% of control)” each time. Moreover, the “Ratio Kout 96/384 wells, P-gp/BCRP” value in data set [6] turned out to be 1.19. The “effect on rate out of cell of R123” value in data set [6] (MK571 50 µM, p < 0.001) is “slight reduction”.

One may read the Papp A→B as the apparent permeability from the apical to the basolateral side of a cell layer. The Papp B→A is the apparent permeability from the basolateral to the apical side of a cell layer. The efflux ratio is the permeability from basolateral to apical divided by that in the opposite direction, in the common usage. Regarding `COC(=O)c1ccccc1-c1c2ccc(=N)cc-2oc2cc(N)ccc12` [R123, rhodamine 123], in data set [7], the Papp A→B at 1 h came to 1.51 ± 0.01 ×10⁻⁶ cm/s; the Papp B→A at 1 h was determined as 8.94 ± 0.4 ×10⁻⁶ cm/s; the efflux ratio at 1 h, 20 µM turned out to be 5.96 ± 0.26.

For `CC(=O)Nc1ccc(O)cc1` [acetanomiphen], in data set [6], the “kout Rho 123, mean” value came out at 113.7 ± 12.6 pmol.min^−1.mg^−1 Protein and the “Ratio Kout 96/384 wells, P-gp/BCRP” value is reported as 1.08.

`O=C(O)Cc1ccccc1Nc1c(Cl)cccc1Cl` [diclofenac]: the “Transporter interaction, MRPs” value in data set [1] (96 wells) and in [1] (384 wells) was “−” in each case.

As to `COc1ccc([C@@H]2Sc3ccccc3N(CCN(C)C)C(=O)[C@@H]2OC(C)=O)cc1` [diltiazem], the “Transporter interaction, MRPs” value in [1] (96 wells) and in [1] (384 wells) was “−” throughout.

For the molecule `COc1cccc2c1C(=O)c1c(O)c3c(c(O)c1C2=O)C[C@@](O)(C(=O)CO)C[C@@H]3O[C@H]1C[C@H](N)[C@H](O)[C@H](C)O1` [doxorubicin], in data set [1], the “effect on rate out of CMFDA” value is listed as “decreased strongly”. The “Transporter interaction, MRPs” value in data set [1] (96 wells) is “+ (Interaction with efflux pumps when Kout ≤ 80% of control)”. Besides, in data set [1] (384 wells), the “Transporter interaction, MRPs” value is “−”. Further, the “Transporter interaction, P-gp/BCRP” value in [8] (96 wells) was “+ (Interaction with efflux pumps when Kout ≤ 80% of control)”. Further, the “Transporter interaction, P-gp/BCRP” value in data set [8] (384 wells) is reported as “+ (Interaction with efflux pumps when Kout ≤ 80% of control)”. The “decrease of Kout of R123” value in data set [6] (p < 0.001) is “more than 30%”. The “Ratio Kout 96/384 wells, P-gp/BCRP” value in data set [6] stood at 1.03. Besides, in data set [7], the Papp A→B at 1 h amounted to 0.36 ± 0.03 ×10⁻⁶ cm/s; the Papp B→A at 1 h was found to be 7.6 ± 0.4 ×10⁻⁶ cm/s; the efflux ratio at 1 h, 20 µM worked out at 21.9 ± 1.11.

Turning to `COc1cc2c(cc1OC)CN(CCc1ccc(NC(=O)c3cccc4c(=O)c5cccc(OC)c5[nH]c34)cc1)CC2` [elacridar], the “reduction of b→a permeability of doxorubicin” value in data set [9] came to 25%. The “reduction of kout of CMFDA” value in data set [1] is “more than 20%”. For the same molecule, the “Transporter interaction, MRPs” value in data set [1] (96 wells) and in [1] (384 wells) was “+ (Interaction with efflux pumps when Kout ≤ 80% of control)” each time. The “Transporter interaction, P-gp/BCRP” value in data set [8] (96 wells) and in data set [8] (384 wells) was “+ (Interaction with efflux pumps when Kout ≤ 80% of control)” each time. In data set [6] (p < 0.001), the “decrease of Kout of R123” value is “more than 30%”. In addition, in data set [6], the “Ratio Kout 96/384 wells, P-gp/BCRP” value was 0.81.

For `CN(C)C(=O)C(CCN1CCC(O)(c2ccc(Cl)cc2)CC1)(c1ccccc1)c1ccccc1` [loperamide], the “reduction of kout of CMFDA” value in [1] is “more than 20%”. The “Transporter interaction, MRPs” value in data set [1] (96 wells) and in data set [1] (384 wells) was “+ (Interaction with efflux pumps when Kout ≤ 80% of control)” each time. For the same molecule, the “kout Rho 123, mean” value in data set [6] is recorded as 42.0 ± 4.9 pmol.min^−1.mg^−1 Protein. Moreover, in data set [6] (p < 0.001), the “decrease of Kout of R123” value was “more than 30%”. Moreover, the “Transporter interaction, P-gp/BCRP” value in data set [6] (96 wells) and in [6] (384 wells) was “+ (Interaction with efflux pumps when Kout ≤ 80% of control)” each time. The “Ratio Kout 96/384 wells, P-gp/BCRP” value in data set [6] stood at 1.01.

Consider `OC[C@@H](O)[C@@H](O)[C@H](O)[C@H](O)CO` [mannitol, Mannitol D-[1-14C]], for which, in data set [7], the Papp A→B at 1 h stood at 0.26 ± 0.03 ×10⁻⁶ cm/s and the basolateral-to-apical permeability (Papp B→A) at 1 h amounted to 0.32 ± 0.03 ×10⁻⁶ cm/s.

`CCC1(c2ccccc2)C(=O)NC(=O)NC1=O` [phenobarbital]: in data set [6], the “kout Rho 123, mean” value amounted to 107.1 ± 10.0 pmol.min^−1.mg^−1 Protein and the “Ratio Kout 96/384 wells, P-gp/BCRP” value worked out at 1.09.

Turning to `C=C[C@H]1C[N@@]2CC[C@H]1C[C@@H]2[C@@H](O)c1ccnc2ccc(OC)cc12` [quinidine], the IC50 in data set [10] is 4.9 ± 0.9 µM.

Turning to `CO[C@H]1/C=C/O[C@@]2(C)Oc3c(C)c(O)c4c(O)c(c(/C=N/N5CCN(C)CC5)c(O)c4c3C2=O)NC(=O)/C(C)=C\C=C\[C@H](C)[C@H](O)[C@@H](C)[C@@H](O)[C@@H](C)[C@H](OC(C)=O)[C@@H]1C` [rifampicin], the “reduction of kout of CMFDA” value in data set [1] was “more than 20%”. Further, the “Transporter interaction, P-gp/BCRP” value in data set [8] (96 wells) and in data set [8] (384 wells) was “+ (Interaction with efflux pumps when Kout ≤ 80% of control)” each time. Besides, the “decrease of Kout of R123” value in [6] (p < 0.001) is “more than 30%”. The “Ratio Kout 96/384 wells, P-gp/BCRP” value in [6] was 1.12.

Take `CC[C@]1(O)C[C@@H]2CN(CCc3c([nH]c4ccccc34)[C@@](C(=O)OC)(c3cc4c(cc3OC)N(C)[C@H]3[C@@](O)(C(=O)OC)[C@H](OC(C)=O)[C@]5(CC)C=CCN6CC[C@]43[C@@H]65)C2)C1` [vinblastine]: the “reduction of kout of CMFDA” value in data set [1] is reported as “more than 20%”. The “decrease of Kout of R123” value in data set [6] (p < 0.001) is listed as “more than 30%”. Further, the “Transporter interaction, P-gp/BCRP” value in data set [6] (96 wells) and in [6] (384 wells) was “+ (Interaction with efflux pumps when Kout ≤ 80% of control)” each time. The “Ratio Kout 96/384 wells, P-gp/BCRP” value in data set [6] is on record as 0.99.

As for “D-α-Tocopherol polyethylene glycol 1000 succinate”, the “kout Rho 123, mean” value in data set [6] stood at 33.7 ± 2.7 pmol.min^−1.mg^−1 Protein. Besides, in data set [6] (p < 0.001), the “decrease of Kout of R123” value is recorded as “more than 30%”. Moreover, the “Transporter interaction, P-gp/BCRP” value in data set [6] (96 wells) and in data set [6] (384 wells) was “+ (Interaction with efflux pumps when Kout ≤ 80% of control)” throughout.

Consider Lucifer yellow, for which the “Papp of Lucifer yellow (apical-to-basal)” value in data set [11] is recorded as 0.066 ± 0.016 × 10^−6 cm/s.
